Measured values reported in paper PMC11470957, “Principles of paralog-specific targeted protein degradation engaging the C-degron E3 KLHDC2” (Nature Communications, 2024).
“And” between values parts separate entries of the source, which are not always exact repeats. Identical values can stand only once. Like-named read-outs stand apart in the source and are kept apart here. One block for each compound: values may come before it.

How the values were obtained:
BRD3 = BRD3 (Homo sapiens, UniProt Q15059); assay: Western blot of BRD3 levels after cellular dosing
BRD4 = BRD4 (Homo sapiens, UniProt O60885); assay: Western blot of BRD4 levels after cellular dosing; details: for BRD4 level, Western blot quantification (DMSO = 100): 1 uM; for BRD4 level relative to DMSO (100%): U2OS KO/Rescue, 1µM, 24 h
KLHDC2 = biological target: T1, KLHDC2 (Homo sapiens, UniProt Q9Y2U9); assay: Western blot of KLHDC2 levels after cellular dosing; details: for KLHDC2 level, Western blot quantification (DMSO = 100): 1 uM; for KLHDC2 level relative to DMSO (100%): U2OS KO/Rescue
T1 sequence (Q9Y2U9 1-406): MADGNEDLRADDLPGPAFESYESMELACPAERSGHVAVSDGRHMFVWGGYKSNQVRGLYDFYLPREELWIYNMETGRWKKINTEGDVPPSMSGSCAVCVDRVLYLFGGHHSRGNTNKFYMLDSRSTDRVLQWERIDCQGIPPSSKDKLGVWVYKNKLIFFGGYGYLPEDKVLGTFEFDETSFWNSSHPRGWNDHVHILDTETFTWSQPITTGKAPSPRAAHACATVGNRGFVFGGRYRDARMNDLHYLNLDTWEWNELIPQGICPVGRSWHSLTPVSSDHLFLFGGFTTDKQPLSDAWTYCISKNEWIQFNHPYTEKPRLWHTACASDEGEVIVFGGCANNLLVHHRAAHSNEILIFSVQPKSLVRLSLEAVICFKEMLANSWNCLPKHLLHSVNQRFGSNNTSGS

BRD2 = BRD2 (Homo sapiens, UniProt P25440); assay: Western blot of BRD2 levels after cellular dosing
KLHDC2^SBD [1] = biological target: T2, KLHDC2^SBD (Homo sapiens, UniProt Q9Y2U9); assay: Thermal shift assay (Sypro Orange) probing stabilization of KLHDC2^SBD; assay type: binding; parameters: KLHDC2^SBD (15-361) and its Avi-tagged counterpart were expressed in E. coli Rosetta2 cells; 6XHis-MBP (N, cleaved yes); made in house; host or cells: E. coli Rosetta2; details: KLHDC2^SBD; ligand concentration not given
T2 sequence (Q9Y2U9 15-361): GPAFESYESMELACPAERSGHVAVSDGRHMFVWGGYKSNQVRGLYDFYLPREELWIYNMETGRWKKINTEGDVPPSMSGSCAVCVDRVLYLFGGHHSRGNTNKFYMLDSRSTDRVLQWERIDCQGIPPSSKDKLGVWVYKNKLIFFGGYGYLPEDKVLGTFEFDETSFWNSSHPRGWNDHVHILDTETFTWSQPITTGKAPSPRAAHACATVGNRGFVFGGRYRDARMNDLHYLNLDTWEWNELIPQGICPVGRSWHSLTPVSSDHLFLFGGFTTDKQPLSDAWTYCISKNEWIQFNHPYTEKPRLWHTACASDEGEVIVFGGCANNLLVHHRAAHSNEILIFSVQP
Experimental: In an attempt to identify non-peptide ligands that target KLHDC2’s substrate binding domain (SBD), we developed a thermal shift assay probing for stabilization of KLHDC2^SBD upon ligand addition. […] We utilized the thermal shift assay to screen ~ 9,000 molecules from a diverse collection of lead-like molecules (Figs. 1b, S1a, Supplementary Table 1).
Experimental compounds (200 nl each) were dispensed into a 384-well PCR plate using the Labcyte ECHO 655 T. The assay solution, comprising 0.5 μM KLHDC2, 25 mM HEPES, 200 mM NaCl, and 5% Sypro Orange at pH 7.5, was added to achieve a final volume of 20 μl. Negative control wells contained only DMSO, while positive control wells contained a di-Gly substrate peptide derived from SELK. Fluorescence measurements of Sypro Orange in each sample were taken using a Quantstudio 5 or Quantstudio 6, with temperatures ranging from 23 to 75 °C at a rate of 0.05 °C/s. Data analysis involved calculating thermal stability using the Boltzmann and first derivative minima equations in Thermo Scientific Protein Thermal Shift software v1.4. The resulting data were uploaded to CDD Vault for further analysis.
The 8892-compound lead-like one library was screened for its ability to stabilize KLHDC2 using a sypro orange-based thermal stability single-point assay.
Supplementary Ta b l e 1. Small molecule screening data
Category Parameter Description
Assay Ty p e o f assay Thermal Stability Screen
Primary measurement RFU of Sypro Orange
Key reagents Sypro Orange
Assay protocol Experimental compounds (200nl each) were dispensed into […]
a 384-well PCR plate using the Labcyte ECHO 655T. The […]
assay solution, comprising 0.5µM KLHDC2, 25mM HEPES,
200mM NaCl, and 5% Sypro Orange at pH 7.5, was added […]
to achieve a final volume of 20μl. Negative control wells […]
contained only DMSO, while positive control wells […]
contained peptide sub2. Fluorescence measurements of
Sypro Orange in each sample were taken using a
Quantstudio 5 or Quantstudio 6, with temperatures ranging […]
from 23 to 75°C at a rate of 0.05°C/second. Data analysis […]
involved calculating thermal stability using the Boltzmann […]
and first derivative minima equations in Thermo Scientific
Protein Thermal Shift software v1.4. The resulting data […]
were uploaded to CDD Vault for further analysis.
Library Library size 10041
Library composition The library was curated from compounds cherry picked […]
from St. Jude’s collection, representative of 80% of the […]
entire collection based on scaffold diversity (2D Molecular […]
fingerprinting based clustering) and structural properties: […]
lipophilicity (cLogP<3), size (MW 200-300 Da), and no […]
structural alerts (PAINS).
Source The compound collection was curated from multiple […]
vendors and stored on-site.
Screen Format The assay was completed in 26 384 well plates
Concentration(s) tested Compounds were tested at 100µM, and then a 16-point […]
serial dilution was performed on select compounds.
Plate controls DMSO as negative control and peptide sub2 as positive […]
Reagent/ compound dispensing system Multidrop Combi and Labcyte ECHO 655T […]
Detection instrument and software Quant Studio 5 and Quant Studio 6 and Thermo Scientific […]
Protein Thermal Shift software v1.4
Correction factors No correction factors were applied.

KLHDC2^SBD [2] = biological target: T2, KLHDC2^SBD; assay: TR-FRET assay, competition with di-Gly degron peptide binding to KLHDC2^SBD; parameters: KLHDC2^SBD (15-361) and its Avi-tagged counterpart were expressed in E. coli Rosetta2 cells; 6XHis-MBP (N, cleaved yes); made in house; host or cells: E. coli Rosetta2; details: inhibition of KLHDC2^SBD binding to a di-Gly degron peptide; read-out: TR-FRET IC50
Experimental: TR-FRET assays were carried out in black 384-well microtiter plates at a final volume of 20 μL per well. An assay cocktail was prepared as a mixture of 50 nM Biotin-KLHDC2 SBD, 20 nM AlexaFluor488-RIC8B peptide, 2.5 nM Tb-Streptavidin (ThermoFisher) in assay buffer (25 mM HEPES, 100 mM NaCl, 0.1% Triton X-100, 0.5 mM DTT, pH 7.5). The assay cocktail was incubated for thirty-minutes at room temperature and 20 μl distributed to assay plates. Molecules were distributed to the plates at the indicated concentration and the assay mixture was incubated for 1 h at room temperature prior to measuring the TR-FRET signal with a PHERAstar FS plate reader (BMG Labtech) equipped with modules for excitation at 337 nm and emissions at 490 and 520 nm. The integration start was set to 100 µs and the integration time to 200 µs. The number of flashes was fixed at 100. The ratio of 520/490 was used as TR-FRET signal in calculations. Assay endpoints were normalized to 100% (buffer only) and used for curve fitting in Prism.

[3] = U2OS, 24 h, read-out: BRD3 level relative to DMSO (100%), U2OS KO/Rescue, 1µM, 24 h, Fig 6d
[4] = U2OS, 24 h, read-out: BRD2 level relative to DMSO (100%), U2OS KO/Rescue, 1µM, 24 h, Fig 6d
[5] = U2OS, 24 h, read-out: BRD3 level relative to DMSO (100%), U2OS KO/Rescue, 1µM, 24 h, Fig 6c
[6] = U2OS, 24 h, read-out: BRD2 level relative to DMSO (100%), U2OS KO/Rescue, 1µM, 24 h, Fig 6c

BRD3, sequence (Q15059 whole entry): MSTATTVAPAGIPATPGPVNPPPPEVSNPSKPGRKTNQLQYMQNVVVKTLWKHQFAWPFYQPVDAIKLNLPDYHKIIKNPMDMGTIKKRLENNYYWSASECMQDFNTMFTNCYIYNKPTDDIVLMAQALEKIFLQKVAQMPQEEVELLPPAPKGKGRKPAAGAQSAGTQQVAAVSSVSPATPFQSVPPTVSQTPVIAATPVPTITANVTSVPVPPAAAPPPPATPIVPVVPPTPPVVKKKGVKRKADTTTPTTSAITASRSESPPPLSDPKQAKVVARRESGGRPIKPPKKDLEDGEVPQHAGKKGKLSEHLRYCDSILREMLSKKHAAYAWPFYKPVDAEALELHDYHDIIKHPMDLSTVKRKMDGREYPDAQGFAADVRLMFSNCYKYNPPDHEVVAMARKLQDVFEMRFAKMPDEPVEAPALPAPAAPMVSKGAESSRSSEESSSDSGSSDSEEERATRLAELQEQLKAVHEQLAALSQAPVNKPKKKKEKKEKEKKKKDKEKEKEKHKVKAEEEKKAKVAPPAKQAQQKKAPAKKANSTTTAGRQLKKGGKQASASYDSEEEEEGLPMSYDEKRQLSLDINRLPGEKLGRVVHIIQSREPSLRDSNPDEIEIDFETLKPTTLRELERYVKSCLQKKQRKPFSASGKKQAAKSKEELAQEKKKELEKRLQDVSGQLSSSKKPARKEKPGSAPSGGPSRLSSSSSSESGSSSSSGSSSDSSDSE
BRD2, sequence (P25440 whole entry): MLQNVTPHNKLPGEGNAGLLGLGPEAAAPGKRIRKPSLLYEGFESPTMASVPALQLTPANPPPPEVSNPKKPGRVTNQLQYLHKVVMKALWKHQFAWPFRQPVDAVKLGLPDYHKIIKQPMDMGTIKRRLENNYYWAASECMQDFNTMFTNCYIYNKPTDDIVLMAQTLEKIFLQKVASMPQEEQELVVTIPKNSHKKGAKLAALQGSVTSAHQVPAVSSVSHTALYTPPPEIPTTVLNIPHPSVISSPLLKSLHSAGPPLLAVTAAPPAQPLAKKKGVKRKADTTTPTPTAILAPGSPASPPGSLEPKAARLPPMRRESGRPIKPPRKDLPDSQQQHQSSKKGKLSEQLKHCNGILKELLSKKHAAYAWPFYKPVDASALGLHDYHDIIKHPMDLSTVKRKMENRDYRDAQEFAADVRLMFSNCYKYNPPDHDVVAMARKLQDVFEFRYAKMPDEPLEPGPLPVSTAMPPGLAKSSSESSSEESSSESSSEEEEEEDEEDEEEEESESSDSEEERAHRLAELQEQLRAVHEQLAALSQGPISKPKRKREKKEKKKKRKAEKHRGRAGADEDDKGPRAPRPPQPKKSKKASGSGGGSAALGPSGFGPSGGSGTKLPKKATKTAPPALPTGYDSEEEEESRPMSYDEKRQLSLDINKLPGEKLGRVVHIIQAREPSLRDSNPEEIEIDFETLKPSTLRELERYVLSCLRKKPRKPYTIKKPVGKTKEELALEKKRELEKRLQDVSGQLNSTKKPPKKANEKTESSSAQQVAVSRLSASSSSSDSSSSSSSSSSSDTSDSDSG

SMILES: NS(=O)(=O)OC[C@@H]1C[C@@H](n2ccc3c(N[C@H]4CCc5ccccc54)ncnc32)C[C@@H]1O [MLN4924, reference compound]
- remaining activity at 1 µM (BRD3; [3]): 120 ± 23%
- BRD4 level, Western blot quantification (DMSO = 100) (BRD4; Fig 6d): 136.422 and 116.069
- BRD4 level relative to DMSO (100%) (BRD4; Fig 6d): 130 +/- 14%
- KLHDC2 level, Western blot quantification (DMSO = 100) (KLHDC2; Fig 6d): 3372.82 and 2800.12
- KLHDC2 level relative to DMSO (100%) (KLHDC2; 1µM, 24 h, Fig 6d): 3090 +/- 404%
- remaining activity at 1 µM (BRD2; [4]): 170 ± 21%

SMILES: O=C(O)CNC(=O)Cc1csc(-c2cccc3ccncc23)n1 [SJ46412]
- Thermal shift ΔTm (KLHDC2^SBD [1]): 1.8 ± 0.08 °C
- IC50 (KLHDC2^SBD [2]): 20.3 ± 0.8 µM

SMILES: COc1ccc2cc(-c3nc(CC(=O)NCC(=O)O)cs3)ccc2c1 [SJ46413]
- Thermal shift ΔTm (KLHDC2^SBD [1]): 3.9 ± 0.07 °C
- IC50 (KLHDC2^SBD [2]): 10.3 ± 0.2 µM

SMILES: O=C(O)CNC(=O)Cc1csc(-c2cccc3ccccc23)n1 [SJ46415]
- Thermal shift ΔTm (KLHDC2^SBD [1]): 3.7 ± 0.05 °C
- IC50 (KLHDC2^SBD [2]): 9.8 ± 0.1 µM

SMILES: Cc1sc2c(c1C)C(c1ccc(Cl)cc1)=N[C@@H](CC(=O)N1CCN(CCOc3cccc4ccc(-c5nc(CC(=O)NCC(=O)OCc6ccccc6)cs5)cc34)CC1)c1nnc(C)n1-2 [SJ48087]
- remaining activity at 1 µM (BRD3; [5]): 89 ± 7.3%
- BRD4 level relative to DMSO (100%) (BRD4; Fig 6c): 101 +/- 11%
- KLHDC2 level relative to DMSO (100%) (KLHDC2; 1µM, 24 h, Fig 6c): 221 +/- 27%
- remaining activity at 1 µM (BRD2; [6]): 90 ± 4%

SMILES: Cc1sc2c(c1C)C(c1ccc(Cl)cc1)=N[C@@H](CC(=O)N1CCN(CCOc3cccc4ccc(-c5nc(CC(=O)NCC(=O)OC6CCCC6)cs5)cc34)CC1)c1nnc(C)n1-2 [SJ48088]
- remaining activity at 1 µM (BRD3; U2OS, 24 h, read-out: BRD3 level relative to DMSO (100%), U2OS KO/Rescue, 1µM + co-dosing 1µM MLN4924, 24 h, Fig 6d): 120 ± 6.2%
- remaining activity at 1 µM (BRD3; [5]): 46 ± 1.5%
- remaining activity at 1 µM (BRD3; [3]): 24 ± 4.6%
- remaining activity at 1 µM (BRD3; read-out: BRD3 level, Western blot quantification (DMSO = 100), Fig 6c, 1 uM): 47.1%
- remaining activity at 1 µM (BRD3; read-out: BRD3 level, Western blot quantification (DMSO = 100), Fig 6d, 1 uM): 20.7%
- BRD4 level, Western blot quantification (DMSO = 100) (BRD4; Fig 6c): 85.9664 and 71.4338
- BRD4 level, Western blot quantification (DMSO = 100) (BRD4; Fig 6d): 72.2613 and 75.636
- BRD4 level relative to DMSO (100%) (BRD4; Fig 6c): 79 +/- 9.6%
- BRD4 level relative to DMSO (100%) (BRD4; Fig 6d): 74 +/- 2.5%
- KLHDC2 level, Western blot quantification (DMSO = 100) (KLHDC2; Fig 6c): 472.526 and 740.895
- KLHDC2 level, Western blot quantification (DMSO = 100) (KLHDC2; Fig 6d): 1961.3 and 1506.23
- KLHDC2 level relative to DMSO (100%) (KLHDC2; 1µM + co-dosing 1µM MLN4924, 24 h, Fig 6d): 4837 +/- 513%
- KLHDC2 level relative to DMSO (100%) (KLHDC2; 1µM, 24 h, Fig 6c): 606 +/- 190%
- KLHDC2 level relative to DMSO (100%) (KLHDC2; 1µM, 24 h, Fig 6d): 1733 +/- 321%
- remaining activity at 1 µM (BRD2; U2OS, 24 h, read-out: BRD2 level relative to DMSO (100%), U2OS KO/Rescue, 1µM + co-dosing 1µM MLN4924, 24 h, Fig 6d): 270 ± 67%
- remaining activity at 1 µM (BRD2; [6]): 83 ± 9.7%
- remaining activity at 1 µM (BRD2; [4]): 78 ± 7.4%
- remaining activity at 1 µM (BRD2; read-out: BRD2 level, Western blot quantification (DMSO = 100), Fig 6c, 1 uM): 75.6%
- remaining activity at 1 µM (BRD2; read-out: BRD2 level, Western blot quantification (DMSO = 100), Fig 6d, 1 uM): 73.2%

SMILES: O=C(O)CNC(=O)Cc1csc(-c2ccc3c(c2)NCCO3)n1 [SJ49356]
- Thermal shift ΔTm (KLHDC2^SBD [1]): 1.3 ± 0.5 °C
- IC50 (KLHDC2^SBD [2]): 8.2 ± 0.3 µM

The remaining compounds from weak to strong by IC50 (KLHDC2^SBD [2]), led by results:

- Thermal shift ΔTm (KLHDC2^SBD [1]): 2.7 ± 0.3 °C
- IC50 (KLHDC2^SBD [2]): 7.1 ± 0.2 µM
SMILES: O=C(O)CNC(=O)Cc1csc(-c2cccc3cccnc23)n1 [SJ46414]

- Thermal shift ΔTm (KLHDC2^SBD [1]): 6.0 ± 0.1 °C
- IC50 (KLHDC2^SBD [2]): 1.8 ± 0.1 µM
SMILES: O=C(O)CNC(=O)Cc1csc(-c2ccc3ccccc3c2F)n1 [SJ46416]

- Thermal shift ΔTm (KLHDC2^SBD [1]): 4.3 ± 0.1 °C
- IC50 (KLHDC2^SBD [2]): 1.7 ± 0.06 µM
SMILES: COc1ccc2ccc(-c3nc(CC(=O)NCC(=O)O)cs3)cc2c1 [SJ46417]
